Seven compounds from PubChem BioAssay (NCI) can be followed below.

Molecules are shown by their SMILES. Values joined by “and” are separate entries in the source; they are usually repeats but may differ in a detail not shown here. Identical values can stand only once.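 Growth conditions: 96-well plates. Treatment: test compound, 48 hours, 5 concentrations. Analysis: linear interpolation between bracketing concentrations; unreached endpoints set to highest concentration. GI50 = concentration required for 50% inhibition of growth. TGI is the concentration that stops growth completely.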 A value given as a limit tells only on which side of the number the result lay.

What all share (test): NCI anticancer screen, dose series, 48 h
The subject of test [1] is TK-10 renal.
Test [2] has as its system COLO 205 colon.
Test [3] has as its system DU-145 prostate.
Test [4] has as its system HCC-2998 colon.
Test [5] relates to HCT-116 colon.
The test system of test [6] is A498 renal.
Test [7] relates to K-562 leukemia.
The test system of test [8] is BT-549 breast.
For test [9], the system named is OVCAR-8 ovarian.
The subject of test [10] is UACC-257 melanoma.

`NC1=NC(c2ccc(Cl)cc2)C2=C(N1)/C(=C/c1ccc(Cl)cc1)CCC2` (centres undefined): the GI50 in test [1] was 27.4 µM; in test [2] it was 6.17 µM; in test [3] it was 7.91 µM; in test [4] it was 2.11 µM; in test [5] it was 1.67 µM; in test [6] it was 2.67 µM. Besides, the GI50 in test [7] was 6.92 µM; in [8], 2.74 µM; in test [9] it was 4.24 µM; in [10], 7.14 µM. Also, the TGI turned out to be 86.8 µM in [1]; 19.9 µM in test [2]; 29.6 µM in test [3]; 4.27 µM in [4]; 3.22 µM in test [5]; 12.6 µM in test [6]. Further, the TGI is more than 87.8 µM in [7], 10.7 µM in test [8], more than 32.4 µM in test [9] and 28.1 µM in test [10].

Turning to `N#CC1=C(N)NC(=O)NC12Nc1ccccc1S2` (centres undefined), the GI50 in [1] is 26.1 µM; in test [2] it was 15.8 µM; in test [3], 12.5 µM; in test [4], 35.5 µM; in [5], 18.5 µM; in test [6] it was 16.5 µM. Further, the GI50 is 31.8 µM in test [7], 24.2 µM in test [8], 6.07 µM in test [9] and 1.42 µM in test [10]. Further, the TGI in test [1] was 66 µM; in test [2], more than 73.1 µM; in test [3] it was 35.3 µM; in test [4] it was more than 100 µM; in test [5], 44 µM; in test [6], 36.8 µM. For the same compound, the TGI in test [7] was more than 93 µM; in [8], 93.6 µM; in test [9] it was more than 37.8 µM.

Regarding `C#Cc1c(C(N)=O)ncn1C1OC(COP(=O)(OCc2ccc([N+](=O)[O-])o2)N(C)CCCCCl)C(O)C1O` (centres undefined), the GI50 in test [1] was 43.1 µM; in test [2] it was 5.5 µM; in [3], 7.83 µM; in test [4], 16.2 µM; in test [5], 38.2 µM; in [6], 39.6 µM. The GI50 was 74.2 µM in test [7], 37.8 µM in [8], 9.91 µM in [9] and 35.2 µM in test [10]. The TGI in [1] is more than 100 µM; in test [2], 88.2 µM; in test [3] it was more than 100 µM; in [4] it was more than 100 µM; in [5], more than 100 µM; in test [6], more than 100 µM. For the same compound, the TGI in test [7], in test [8], in test [9] and in test [10] was more than 100 µM in each case.

In the case of `O=c1cc(-c2ccccc2)[nH]n1-c1nc2ccccc2[nH]1`, the GI50 in [1] is 17.7 µM; in test [2], 27.8 µM; in test [3], 9.97 µM; in test [4], 23.1 µM; in test [5], 3.12 µM; in [6], 3.72 µM. Further, the GI50 in [7] was 3.94 µM; in test [8], 7.03 µM; in test [9], 4.5 µM; in test [10], 6.18 µM. Also, the TGI is more than 100 µM in test [1]; more than 100 µM in [2]; more than 100 µM in test [3]; more than 100 µM in test [4]; more than 100 µM in test [5]; 22.9 µM in test [6]. In addition, the TGI in test [7], in test [8], in test [9] and in [10] was more than 100 µM in each case.

For the compound `Cc1cc(Nc2ncnc3ccc(NC4=NC(C)(C)CO4)cc23)ccc1Oc1ccn2ncnc2c1`, the GI50 in test [1] was 3.84 µM and 2.76 µM; in test [2], 14.3 µM and > 10 µM; in test [3], 15.9 µM and > 10 µM; in test [4], 16.5 µM and > 10 µM; in test [5], 21.1 µM and > 10 µM; in test [6] it was 4.1 µM and > 10 µM. Further, the GI50 was 17.1 µM and > 10 µM in [7]; 14.1 µM and > 10 µM in [8]; 8.75 µM and > 10 µM in test [9]; 16.9 µM and > 10 µM in [10]. Further, the TGI in test [1] is 25.1 µM and > 10 µM; in [2], 32.3 µM and > 10 µM; in test [3], more than 100 µM; in [4], 30.9 µM and > 10 µM; in test [5], more than 80.1 µM; in test [6], 24.8 µM and > 10 µM. Moreover, the TGI was more than 100 µM in test [7]; 39.5 µM and > 10 µM in test [8]; 55.1 µM and > 10 µM in [9]; 33.1 µM and > 10 µM in test [10].

As to `COc1ccc(-n2c3c(c4c(CN5CCOCC5)c(O)ccc42)CCc2ccccc2C3=O)cc1`, the GI50 is more than 100 µM in [1]; more than 100 µM in test [2]; 67.9 µM in test [3]; more than 100 µM in test [4]; more than 100 µM in [5]; more than 100 µM in [6]. For the same compound, the GI50 was 17.8 µM in test [7], 24.2 µM in test [8], 64.4 µM in [9] and more than 100 µM in test [10]. Also, the TGI in [1], in [2], in [3], in [4], in [5] and in test [6] was more than 100 µM throughout. Besides, the TGI in test [7], in test [8], in test [9] and in test [10] was more than 100 µM each time.

As for `Cc1cc(C)c(O)c(CN(C)Cc2cc(Cl)cc(Cl)c2O)c1`, the GI50 in test [1] was 4.95 µM; in [2], 4.99 µM; in test [3], 6.37 µM; in test [4], 4.8 µM; in test [5] it was 3.23 µM; in test [6] it was 5.69 µM. Also, the GI50 was 3.54 µM in test [7], 11.8 µM in test [8], 2.78 µM in test [9] and 3.14 µM in test [10]. Further, the TGI was found to be 25.6 µM in test [1]; 15.3 µM in test [2]; 20.8 µM in test [3]; 17.4 µM in test [4]; 10.8 µM in test [5]; 21.9 µM in test [6]. In addition, the TGI was more than 100 µM in test [7], 27.3 µM in [8], 12.1 µM in test [9] and 12.1 µM in test [10].
